The values below come from patent US20260226037A1, “MICROTUBULE TARGETING AGENTS” (ARIEL SCIENTIFIC INNOVATIONS LTD., priority 2022, published 2026).

Common to all, as to type: cell-based
For test [1], the system named is RPMI-DOX40 cells. Nature of the test: XTT cytotoxicity, RPMI-DOX40. The note with it: for IC50: RPMI-DOX40, multiple myeloma, P-gp overexpression, read-out: IC50; for IC50 ratio between resistant and non-resistant cells: RPMI-DOX40 / RPMI 8226. The method, then:
(§1) The cytotoxic activity of the novel family was evaluated against various tumor cells, including myeloma cells, acute lymphoblastic leukemia cells, acute monocytic leukemia cells, chronic myelogenous leukemia cells, pancreatic cancer cells, breast cancer cells, uterine sarcoma cells, cervix adenocarcinoma cells, ovary cancer cells, melanoma cells, osteosarcoma cells, prostate cancer cells, lung cancer cells, neuroblastoma cells and colorectal adenocarcinoma cells by XTT assay.
For orientation: Tetrazolium dyes change colour on reduction, which living cells bring about.

The subject of test [2] is MES-SA cells. Briefly: XTT cytotoxicity, MES-SA. The note with it: poorly differentiated uterine sarcoma, non-resistant. The method, then: as §1
The test system of test [3] is NCI-H69 VCR/R cells. Nature of the test: XTT cytotoxicity, NCI-H69 VCR/R. The following applies: for IC50 ratio between resistant and non-resistant cells: NCI-H69 VCR/R / NCI-H69; for IC50: NCI-H69 VCR/R, vincristine resistant. The method, then:
as §1

For test [4], the system named is A2780ADR cells. Nature of the test: XTT cytotoxicity, A2780ADR. The note with it: for IC50 ratio between resistant and non-resistant cells: A2780ADR / A2780; for IC50: A2780ADR, ovarian carcinoma, resistant. The method, then: as §1
Test [5] concerns NALM6 cells. Nature of the test: XTT cytotoxicity, NALM6. The note with it: NALM6, acute lymphoblastic leukemia, non-resistant, read-out: IC50. As for the experimental part:
as §1
(§2) Most tubulin-binding anticancer drugs currently used in the clinic are substrates for Pgp effux pump. […] The inventors tested the viability of NALM6 acute lymphoblastic leukemia cell line (ALL) and its corresponding doxorubicin resistant N6/ADR cell line that overexpress Pgp glycoprotein and has cross-resistance to vincristine.

Test [6] relates to NCI-H69 cells. Briefly: XTT cytotoxicity, NCI-H69. The note with it: NCI-H69, small cell lung carcinoma, non-resistant. The method, then: as §1
In test [7] the test system is MM1.S cells. Nature of the test: XTT cytotoxicity, MM1.S. The following applies: multiple myeloma, non-resistant, read-out: IC50. As for the experimental part: as §1
In test [8] the test system is RPMI-LR5 cells. Nature of the test: XTT cytotoxicity, RPMI-LR5. The following applies: for IC50: RPMI-LR5, multiple myeloma, melphalan resistant, read-out: IC50; for IC50 ratio between resistant and non-resistant cells: RPMI-LR5 / RPMI 8226. The method, then: as §1
In test [9] the test system is MM1.R cells. Nature of the test: XTT cytotoxicity, MM1.R. The note with it: for IC50: MM1.R, multiple myeloma, dexamethasone resistant, read-out: IC50; for IC50 ratio between resistant and non-resistant cells: MM1.R / MM1.S. The method, then:
as §1

The test system of test [10] is A2780 cells. Briefly: XTT cytotoxicity, A2780. The following applies: A2780, ovarian carcinoma, non-resistant. As for the experimental part: as §1
The test system of test [11] is MES-SA/DX5 cells. Briefly: XTT cytotoxicity, MES-SA/DX5. The note with it: for IC50: MES-SA/DX5, uterine sarcoma, P-gp overexpression; for IC50 ratio between resistant and non-resistant cells: MES-SA/DX5 / MES-SA; for effectiveness in subline overexpressing PgP: MES-SA/DX5 vs MES-SA. As for the experimental part:
as §1

Test [12] relates to N6/ADR cells. Nature of the test: XTT cytotoxicity, N6/ADR. The note with it: for IC50 ratio between resistant and non-resistant cells: N6/ADR / NALM6; for sensitivity to Pgp glycoprotein overexpression: N6/ADR vs NALM6 dose response; for IC50: N6/ADR, acute lymphoblastic leukemia, P-gp overexpression, read-out: IC50. As for the experimental part:
as §1, §2

The subject of test [13] is RPMI 8226 cells. Briefly: XTT cytotoxicity, RPMI 8226. The note with it: RPMI 8226, multiple myeloma, non-resistant, read-out: IC50. The method, then:
as §1

Test [14] relates to MCF7 cells. Briefly: XTT cytotoxicity, MCF7. The following applies: MCF7, breast adenocarcinoma, non-resistant. The method, then:
as §1

The subject of test [15] is MCF7-VP cells. Briefly: XTT cytotoxicity, MCF7-VP. The following applies: for IC50: MCF7-VP, breast adenocarcinoma, MRP overexpression; for IC50 ratio between resistant and non-resistant cells: MCF7-VP / MCF7. As for the experimental part: as §1
For test [16], the system named is colchicine binding site on tubulin protein. Nature of the test: EBI competition assay, RPMI-8226 cells. The note with it: RPMI-8226 living cells.
Test [17] deals with RPMI-MR20 cells. Briefly: XTT cytotoxicity, RPMI-MR20. The following applies: for IC50: RPMI-MR20, mitoxantrone resistant, read-out: IC50; for IC50 ratio between resistant and non-resistant cells: RPMI-MR20 / RPMI 8226. The method, then:
as §1

For test [18], the system named is RPMI8226 cells. Briefly: Cell cycle distribution by flow cytometry. The note with it: 6 hours; IC50, IC50x2.5 and IC50x5 concentrations. As for the experimental part:
Cell cycle arrest is a shared consequence of MTAs treatment. The effects of cell cycle distribution were determined in RPMI8226 cells treated for 6 and 18 hours with a range of concentrations of the molecules. The cells were stained with propidium iodide and cell cycle distribution was measured using a cytoFLEX flow cytometer.
A general note: Flow cytometry measures light scatter and fluorescence of single cells or particles in a stream.

Where two headings read alike, the source gives them in different places. Where a SMILES comes first, the peptide text is derived from it. [ ]: non-standard residue; d: D form. The star is where a group is joined. Dolaproine = CO[C@@H]([C@@H]1CCCN1)[C@@H](C)C(=O)O; Dil = CC[C@H](C)[C@H](NC)[C@@H](CC(=O)O)OC; X1 = C[C@@H](N*)[C@@H](O)c1ccccc1; NMeV = CN[C@H](C(=O)O)C(C)C

In general, IC50 refers to the concentration that inhibits the measured activity by half. With `CC[C@H](C)[C@@H]([C@@H](CC(=O)N1CCC[C@H]1[C@H](OC)[C@@H](C)C(=O)N[C@H](C)[C@@H](O)c1ccccc1)OC)N(C)C(=O)[C@@H](NC(=O)[C@@H](NC)C(C)C)C(C)C` [MMAE, reference compound] (H-[NMeV]V[Dil][Dolaproine]-X1), the IC50 in test [1] is > 0.015 µM; in test [2], 0.016 µM; in [3], 0.002 µM; in test [4], 0.025 µM; in test [5], 0.0003 µM; in test [6], 0.003 µM. Also, the IC50 was < 0.0025 µM in test [7]; > 0.015 µM in [8]; < 0.0025 µM in test [9]; 0.0008 µM in test [10]; 2.74 µM in test [11]; 0.0008 µM in [12]. The IC50 in test [13] was < 0.0025 µM. Moreover, the “IC50 ratio between resistant and non-resistant cells” value in [1] is on record as >6.000; in [3] it was 0.667; in test [4] it was 31.250; in [8] it was >6.000; in [11] it was 165.037; in [12], 2.667. Also, in test [11], the “effectiveness in subline overexpressing PgP” value (shortened to “effectiveness”) was “less effective in the subline overexpressing PgP”. In addition, the “sensitivity to Pgp glycoprotein overexpression” value (“sensitivity” below) in test [12] is on record as “sensitive to PgP”.

As for `CC(=O)O[C@H]1C(=O)[C@@]2(C)[C@H]([C@H](OC(=O)c3ccccc3)[C@]3(O)C[C@H](OC(=O)[C@H](O)[C@@H](NC(=O)c4ccccc4)c4ccccc4)C(C)=C1C3(C)C)[C@]1(OC(C)=O)CO[C@@H]1C[C@@H]2O` [Paqlitaxel, paclitaxel], the IC50 in [2] (Homo sapiens) was 0.11 µM; in [3] (Homo sapiens), > 1 µM; in test [4] (A2780 ADR), 0.4 µM; in test [5] (Homo sapiens, NALM-6), 0.0084 µM; in test [6] (Homo sapiens), 0.059 µM; in test [10] (Homo sapiens), 0.0065 µM. Moreover, the IC50 in [14] (Homo sapiens) is 0.136 µM; in test [11] (Homo sapiens) it was > 1 µM; in [15] (Homo sapiens), 0.074 µM; in test [12], 0.024 µM. The “IC50 ratio between resistant and non-resistant cells” value in [3] is given as >16.949; in test [4], 61.538; in test [11] it was >9.009; in test [15] it was 0.544; in [12], 2.857. In addition, the “effectiveness” value in test [11] is given as “less effective in the subline overexpressing PgP”. The “sensitivity” value in [12] was “sensitive to PgP”.

Take `Cc1c(C(=O)OCCCCN)[nH]c2c1C(=O)CC(c1ncco1)C2.Cl.Cl` (centres unmarked) [SMS088, 4-ami0butyl-3-methyl-6-(oxazol-2-yl)-4-oxo-4,5,6,7-tetrahydro-1H-indole-2-carboxylate dihydrogen chloride]: the IC50 in [1] is 1.35 µM; in test [2], 2.2 µM; in [5], 0.056 µM; in test [7], 1.1 µM; in [8] it was 1.43 µM; in [17] it was > 1.8 µM. Besides, the IC50 in [9] came to 1.02 µM; in test [14], 5.84 µM; in [11], 5.26 µM; in test [15], 7.3 µM; in test [12], 0.062 µM; in [13] it was 1.61 µM. The “IC50 ratio between resistant and non-resistant cells” value in [1] was 0.839; in [8] it was 0.885; in [17], >1.116; in test [9] it was 0.934; in test [11], 2.391; in [15], 1.251. In addition, the “IC50 ratio between resistant and non-resistant cells” value in test [12] is recorded as 1.107. The “prevention of covalent binding of EBI to the colchicine binding site” value in [16] is on record as “prevented the covalent binding of EBI to the colchicine binding site”. Besides, the cell cycle arrest result in test [18] was “cell cycle arrest in G2M phase”.

Consider `CC[C@]1(O)C[C@H]2CN(CCc3c([nH]c4ccccc34)[C@@](C(=O)OC)(c3cc4c(cc3OC)N(C=O)[C@H]3[C@@](O)(C(=O)OC)[C@H](OC(C)=O)[C@]5(CC)C=CCN6CC[C@]43[C@@H]65)C2)C1` [Vincristine, reference compound], for which the IC50 in test [1] is > 0.01 µM; in test [2] (Homo sapiens), 0.999 µM; in test [3] (Homo sapiens), > 1 µM; in test [4] (A2780 ADR), 0.231 µM; in test [5] (Homo sapiens, NALM-6), 0.0011 µM; in [6] (Homo sapiens), 0.024 µM. The IC50 was 0.0016 µM in test [7] (Homo sapiens); > 0.004 µM in [8]; 0.0003 µM in [17]; 0.0017 µM in [9] (MM.1R); 0.003 µM in test [10] (Homo sapiens); 0.078 µM in test [14] (Homo sapiens). Further, the IC50 in test [11] (Homo sapiens) came to 3.68 µM; in test [15] (Homo sapiens), 0.22 µM; in test [12], 0.012 µM; in [13] (Homo sapiens) it was 0.0019 µM. For the same compound, the “IC50 ratio between resistant and non-resistant cells” value in [1] is listed as >5.263; in [3], >41.667; in test [4] it was 77.000; in test [8], >2.105; in test [17], 0.158; in [9] it was 1.063. Moreover, the “IC50 ratio between resistant and non-resistant cells” value in [11] was found to be 3.684; in test [15], 2.821; in test [12] it was 10.909. Besides, the “resistance of cells to treatment” value in [3] (NCI-H69 VCR/R lung carcinoma cells) and in test [4] (A2780ADR ovary carcinoma cells) was “resistant to vincristine” throughout. Also, the “effectiveness” value in test [11] is listed as “less effective in the subline overexpressing PgP”. Also, in test [12], the “sensitivity” value is given as “sensitive to PgP”.

On to `CCC1=C[C@@H]2CN(C1)Cc1c([nH]c3ccccc13)[C@@](C(=O)OC)(c1cc3c(cc1OC)N(C)[C@H]1[C@@](O)(C(=O)OC)[C@H](OC(C)=O)[C@]4(CC)C=CCN5CC[C@]31[C@@H]54)C2` [Vinorelbine], for which the IC50 in [2] (Homo sapiens) was 0.064 µM; in test [3] (Homo sapiens), > 1 µM; in test [4] (A2780 ADR) it was 2.7 µM; in test [6] (Homo sapiens) it was 0.022 µM; in [10] (Homo sapiens), 0.009 µM; in [14] (Homo sapiens), 0.022 µM. Further, the IC50 is > 1 µM in test [11] (Homo sapiens) and 0.028 µM in test [15] (Homo sapiens). The “IC50 ratio between resistant and non-resistant cells” value in test [3] was >45.454; in test [4], 300.000; in test [11], >15.625; in test [15], 1.273. In addition, in test [11], the “effectiveness” value is on record as “less effective in the subline overexpressing PgP”.

Turning to Epothilone, the IC50 in test [2] was 0.052 µM; in [3], > 1 µM; in test [4], > 1 µM; in test [6], 0.088 µM; in test [10], 0.0027 µM; in test [14], 0.22 µM. Further, the IC50 in test [11] was 0.187 µM; in [15], 0.456 µM. Also, the “IC50 ratio between resistant and non-resistant cells” value in test [3] is >11.364; in [4], >370.370; in [11], 3.613; in [15] it was 2.073.
